Reference: ChEMBL document CHEMBL5532755, “Unveiling the potent activity of a synthetic ion transporter against multidrug-resistant Gram-positive bacteria and biofilms” (RSC Med Chem, 2024)
Converted amounts (≈) assume the structure as drawn. The source made the active and inactive calls. The rule behind the calls is not given here.

Experiments:
Cell membrane [1] = assay: Induction of membrane depolarization in methicillin-resistant Staphylococcus aureus ATCC 33591 assessed as depolarized bacterial cells by measuring green fluorescence at 10 to 15 ug/ml incubated for 4 hrs by DiOC2(3) dye based flow cytometry analysis (reference value: 27.3%); type: cell membranes; conditions: dose 10-15 µg/ml
Cell membrane [2] = assay: Induction of membrane depolarization in methicillin-resistant Staphylococcus aureus ATCC 33591 assessed as depolarized bacterial cells by measuring red fluorescence at 10 to 15 ug/ml incubated for 4 hrs by DiOC2(3) dye based flow cytometry analysis (reference value: 63.8%); type: cell membranes; conditions: dose 10-15 µg/ml
Cell membrane [3] = assay: Induction of membrane depolarization in methicillin-resistant Staphylococcus aureus ATCC 33591 assessed as depolarized bacterial cells by measuring red to green fluorescence ratio at 10 to 15 ug/ml incubated for 4 hrs by DiOC2(3) dye based flow cytometry analysis; type: cell membranes; conditions: dose 10-15 µg/ml
Escherichia coli = assay: Antibacterial activity against Escherichia coli MTCC 443 incubated for 16 to 18 hrs by broth dilution method; type: functional; conditions: time 16-18 hrs
Staphylococcus aureus [4] = assay: Antibacterial activity against Staphylococcus aureus MTCC 737 incubated for 16 to 18 hrs by broth dilution method; type: functional; conditions: time 16-18 hrs
[5] = test system: Staphylococcus epidermidis; assay: Antibacterial activity against Staphylococcus epidermidis MTCC 3615 incubated for 16 to 18 hrs by broth dilution method; type: functional; conditions: time 16-18 hrs
Enterococcus faecium [6] = assay: Antibacterial activity against Enterococcus faecium ATCC 19634 incubated for 16 to 18 hrs by broth dilution method; type: functional; conditions: time 16-18 hrs
Staphylococcus aureus [7] = assay: Antibacterial activity against methicillin-resistant Staphylococcus aureus ATCC 33591 incubated for 16 to 18 hrs by broth dilution method; type: functional; conditions: time 16-18 hrs
Staphylococcus aureus [8] = assay: Antibacterial activity against methicillin-resistant Staphylococcus aureus R3545 incubated for 16 to 18 hrs by broth dilution method; type: functional; conditions: time 16-18 hrs
Staphylococcus aureus [9] = assay: Antibacterial activity against methicillin-resistant Staphylococcus aureus R3890 incubated for 16 to 18 hrs by broth dilution method; type: functional; conditions: time 16-18 hrs
Staphylococcus aureus [10] = assay: Antibacterial activity against methicillin-resistant Staphylococcus aureus R3889 incubated for 16 to 18 hrs by broth dilution method; type: functional; conditions: time 16-18 hrs
Staphylococcus aureus [11] = assay: Antibacterial activity against vancomycin-resistant Staphylococcus aureus 1 incubated for 16 to 18 hrs by broth dilution method; type: functional; conditions: time 16-18 hrs
Staphylococcus aureus [12] = assay: Antibacterial activity against vancomycin-resistant Staphylococcus aureus 4 incubated for 16 to 18 hrs by broth dilution method; type: functional; conditions: time 16-18 hrs
Enterococcus faecium [13] = assay: Antibacterial activity against vancomycin-resistant Enterococcus faecium 903 incubated for 16 to 18 hrs by broth dilution method; type: functional; conditions: time 16-18 hrs
Enterococcus faecium [14] = assay: Antibacterial activity against vancomycin-resistant Enterococcus faecium 909 incubated for 16 to 18 hrs by broth dilution method; type: functional; conditions: time 16-18 hrs
[15] = Hemolytic activity in human RBC incubated for 1 hr by microplate reader method; type: toxicity, cell-based, Erythrocyte; conditions: human red blood cells (erythrocytes)
[16] = Cytotoxicity against MDCK cells assessed as cell viability incubated for 24 hrs by alamar blue staining based assay; type: toxicity, Canis lupus familiaris; conditions: dog
Staphylococcus aureus [17] = assay: Bactericidal activity against methicillin-resistant Staphylococcus aureus ATCC 33591 assessed as eradication of bacterial cells at 8 ug/ml observed within 12 hrs by time killing analysis relative to control; type: functional; conditions: dose 8 µg/ml
Staphylococcus aureus [18] = assay: Bactericidal activity against methicillin-resistant Staphylococcus aureus ATCC 33591 assessed as log reduction in bacterial titer at 8 ug/ml observed within 12 hrs by time killing analysis; type: functional; conditions: dose 8 µg/ml
Staphylococcus aureus [19] = assay: Bactericidal activity against vancomycin-resistant Staphylococcus aureus 1 assessed as log reduction in bacterial titer at 8 ug/ml observed after 12 hrs by time killing analysis; type: functional; conditions: dose 8 µg/ml
Staphylococcus aureus [20] = assay: Bactericidal activity against vancomycin-resistant Staphylococcus aureus 1 assessed as reduction in bacterial count at 16 ug/ml observed after 12 hrs by time killing analysis; type: functional; set-up: scale not given: the % may be the effect or the level left; conditions: dose 16 µg/ml
Staphylococcus aureus [21] = assay: Antibiofilm activity against methicillin-resistant Staphylococcus aureus ATCC 33591 assessed as reduction in biofilm biomass at 32 ug/ml incubated for 24 hrs by crystal violet staining based analysis relative to control; type: functional; set-up: scale not given: the % may be the effect or the level left; conditions: dose 32 µg/ml
Staphylococcus aureus [22] = assay: Antibiofilm activity against methicillin-resistant Staphylococcus aureus ATCC 33591 assessed as reduction in biofilm biomass at 64 ug/ml incubated for 24 hrs by crystal violet staining based analysis relative to control; type: functional; set-up: scale not given: the % may be the effect or the level left; conditions: dose 64 µg/ml
Staphylococcus aureus [23] = assay: Antibiofilm activity against methicillin-resistant Staphylococcus aureus ATCC 33591 assessed as log reduction in bacterial burden in biofilm at 32 ug/ml incubated for 18 hrs; type: functional; conditions: dose 32 µg/ml
Staphylococcus aureus [24] = assay: Antibiofilm activity against methicillin-resistant Staphylococcus aureus ATCC 33591 assessed as log reduction in bacterial burden in biofilm at 64 ug/ml incubated for 18 hrs; type: functional; conditions: dose 64 µg/ml
Staphylococcus aureus [25] = assay: Antibiofilm activity against methicillin-resistant Staphylococcus aureus ATCC 33591 assessed as biofilm thickness at 64 ug/ml by Syto-9/PI staining based confocal laser scanning microscopy; type: functional; conditions: dose 64 µg/ml
Cell membrane [26] = assay: Induction of cytoplasmic membrane depolarization in methicillin-resistant Staphylococcus aureus ATCC 33591 assessed as increase in fluorescence intensity measured after 24 min by DiSC3-5 dye based fluorescence method; conditions: dose 4-16 µg/ml
Cell membrane [27] = assay: Induction of cytoplasmic membrane depolarization in vancomycin-resistant Staphylococcus aureus 1 assessed as increase in fluorescence intensity and measured after 24 min by DiSC3-5 dye based fluorescence method; conditions: dose 4-16 µg/ml
Cell membrane [28] = assay: Induction of inner membrane permeabilization in methicillin-resistant Staphylococcus aureus ATCC 33591 assessed as appearance of dead bacterial cells with compromised membrane integrity at 16 ug/ml incubated for 4 hrs by Syto-9/PI staining based confocal microscopy; type: cell membranes; conditions: dose 16.0 µg/ml
Staphylococcus aureus [29] = assay: Induction of ROS generation in methicillin-resistant Staphylococcus aureus ATCC 33591 assessed as increase in fluorescence intensity by DCFH-DA dye based flow cytometry analysis; type: functional, organism-based; conditions: dose 8-16 µg/ml
Staphylococcus aureus [30] = assay: Induction of resistance development in methicillin-resistant Staphylococcus aureus ATCC 33591 measured after 10 days by broth dilution method; type: functional; conditions: time 10.0 day
Cell membrane [31] = assay: Induction of membrane depolarization in methicillin-resistant Staphylococcus aureus ATCC 33591 assessed as depolarized bacterial cells by measuring green fluorescence at 8 ug/ml incubated for 4 hrs by DiOC2(3) dye based flow cytometry analysis (reference value: 27.3%); type: cell membranes; conditions: dose 8.0 µg/ml
Cell membrane [32] = assay: Induction of membrane depolarization in methicillin-resistant Staphylococcus aureus ATCC 33591 assessed as depolarized bacterial cells by measuring red fluorescence at 8 ug/ml incubated for 4 hrs by DiOC2(3) dye based flow cytometry analysis (reference value: 63.8%); type: cell membranes; conditions: dose 8.0 µg/ml
Cell membrane [33] = assay: Induction of membrane depolarization in methicillin-resistant Staphylococcus aureus ATCC 33591 assessed as depolarized bacterial cells by measuring red to green fluorescence ratio at 8 ug/ml incubated for 4 hrs by DiOC2(3) dye based flow cytometry analysis; type: cell membranes; conditions: dose 8.0 µg/ml
[34] = Cytotoxicity against MDCK cells assessed as cell viability at 0.5 to 4 ug/ml incubated for 24 hrs by alamar blue assay relative to control; type: toxicity, cell-based, Canis lupus familiaris; conditions: dog, at 0.5 to 4 µg/mL, dose 0.5-4 µg/ml, read-out: Activity
[35] = Selectivity index, ratio of HC50 for hemolytic activity in human RBC to MIC for antibacterial activity against Staphylococcus aureus; type: toxicity; conditions: human red blood cells (erythrocytes), read-out: Selectivity Index
[36] = Selectivity index, ratio of HC50 for hemolytic activity in human RBC to MIC for antibacterial activity against Staphylococcus epidermidis; type: toxicity; conditions: human red blood cells (erythrocytes), read-out: Selectivity Index
[37] = Selectivity index, ratio of HC50 for hemolytic activity in human RBC to MIC for antibacterial activity against Enterococcus faecium; type: toxicity; conditions: human red blood cells (erythrocytes), read-out: Selectivity Index
[38] = Selectivity index, ratio of HC50 for hemolytic activity in human RBC to MIC for antibacterial activity against methicillin-resistant Staphylococcus aureus ATCC 33591; type: toxicity; conditions: human red blood cells (erythrocytes), read-out: Selectivity Index
[39] = Selectivity index, ratio of HC50 for hemolytic activity in human RBC to MIC for antibacterial activity against methicillin-resistant Staphylococcus aureus R3545; type: toxicity; conditions: human red blood cells (erythrocytes), read-out: Selectivity Index
[40] = Selectivity index, ratio of HC50 for hemolytic activity in human RBC to MIC for antibacterial activity against methicillin-resistant Staphylococcus aureus R3890; type: toxicity; conditions: human red blood cells (erythrocytes), read-out: Selectivity Index
[41] = Selectivity index, ratio of HC50 for hemolytic activity in human RBC to MIC for antibacterial activity against methicillin-resistant Staphylococcus aureus R3889; type: toxicity; conditions: human red blood cells (erythrocytes), read-out: Selectivity Index
[42] = Selectivity index, ratio of HC50 for hemolytic activity in human RBC to MIC for antibacterial activity against vancomycin-resistant Staphylococcus aureus 1; type: toxicity; conditions: human red blood cells (erythrocytes), read-out: Selectivity Index
[43] = Selectivity index, ratio of HC50 for hemolytic activity in human RBC to MIC for antibacterial activity against vancomycin-resistant Staphylococcus aureus 4; type: toxicity; conditions: human red blood cells (erythrocytes), read-out: Selectivity Index
[44] = Selectivity index, ratio of HC50 for hemolytic activity in human RBC to MIC for antibacterial activity against vancomycin-resistant Enterococcus faecium 903; type: toxicity; conditions: human red blood cells (erythrocytes), read-out: Selectivity Index
[45] = Selectivity index, ratio of HC50 for hemolytic activity in human RBC to MIC for antibacterial activity against vancomycin-resistant Enterococcus faecium 909; type: toxicity; conditions: human red blood cells (erythrocytes), read-out: Selectivity Index
[46] = Hemolytic activity in human RBC at 0.5 to 2 ug/ml incubated for 1 hr by microplate reader method relative to control; type: toxicity, cell-based, Erythrocyte; conditions: human red blood cells (erythrocytes), at 0.5 to 2 µg/mL, dose 0.5-2 µg/ml, read-out: Activity
Staphylococcus aureus [47] = assay: Antibiofilm activity against methicillin-resistant Staphylococcus aureus ATCC 33591 assessed as eradication of bacteria by measuring colocalization of green and red cells at 64 ug/ml by Syto-9/PI staining based confocal laser scanning microscopy; type: functional, organism-based; conditions: dose 64.0 µg/ml

N#CC(C#N)=NNc1cccc(Cl)c1
Activity (Cell membrane [1]): 47.8%
Activity (Cell membrane [2]): 49.1%
Ratio (Cell membrane [3]): 1.1

COLISTIN
MIC (Escherichia coli): 1 µg/mL

CCCCNc1nc(NCCCC)nc(N2CC3CC(C2)CN(c2nc(NCCCC)nc(NCCCC)n2)C3)n1
MIC (Staphylococcus aureus [4]): 0.5 µg/mL (≈ 0.879 µM)
MIC [5]: 4 µg/mL (≈ 7.03 µM)
MIC (Enterococcus faecium [6]): 0.25 µg/mL (≈ 0.44 µM)
MIC (Staphylococcus aureus [7]): 0.5 µg/mL (≈ 0.879 µM)
MIC (Staphylococcus aureus [8]): 0.5 µg/mL (≈ 0.879 µM)
MIC (Staphylococcus aureus [9]): 0.5 µg/mL (≈ 0.879 µM)
MIC (Staphylococcus aureus [10]): 0.5 µg/mL (≈ 0.879 µM)
MIC (Staphylococcus aureus [11]): 0.5 µg/mL (≈ 0.879 µM)
MIC (Staphylococcus aureus [12]): 0.5 µg/mL (≈ 0.879 µM)
MIC (Enterococcus faecium [13]): 1 µg/mL (≈ 1.76 µM)
MIC (Enterococcus faecium [14]): 1 µg/mL (≈ 1.76 µM)
MIC (Escherichia coli): 64 µg/mL (≈ 113 µM)
HC50 at 1 h [15]: 810 µg/mL
EC50 at 24 h [16]: 21 µg/mL (≈ 36.9 µM)
Activity (Staphylococcus aureus [17]): 100%
log(activity) (Staphylococcus aureus [18]): >5
log(activity) (Staphylococcus aureus [19]): 3.5
Activity (Staphylococcus aureus [20]): 100%
Activity (Staphylococcus aureus [21]): 50%
Activity (Staphylococcus aureus [22]): 40%
log(activity) (Staphylococcus aureus [23]): 1.7
log(activity) (Staphylococcus aureus [24]): ~2
Activity (Staphylococcus aureus [25]): 3 um
Activity (Cell membrane [26]): Dose-Dependent Effect
Activity (Cell membrane [27]): Dose-Dependent Effect
Activity (Cell membrane [28]): Active
Activity (Staphylococcus aureus [29]): Dose-Dependent Effect
Activity (Staphylococcus aureus [30]): inactive
Activity (Cell membrane [31]): 43.2%
Activity (Cell membrane [32]): 47.8%
Ratio (Cell membrane [33]): 1.1
viability at 24 h [34]: > 95%
selectivity ratio [35]: 400
selectivity ratio [36]: 400
selectivity ratio [37]: 400
selectivity ratio [38]: 800
selectivity ratio [39]: 800
selectivity ratio [40]: 800
selectivity ratio [41]: 800
selectivity ratio [42]: 800
selectivity ratio [43]: 800
selectivity ratio [44]: 800
selectivity ratio [45]: 800
hemolysis at 1 h [46]: 0%
Activity (Staphylococcus aureus [47]): Active
